From US20100279976A1, “USE OF ARTEMISININ AND ITS DERIVATIVES IN CANCER THERAPY” (SHANGHAI INSTITUTES FOR BIOLOGICAL SCIENCES, CAS, priority 2009, published 2010)

Assays:
[1] = tested on: Huh-7 hepatoma cells (p53 mutant); assay: MTT cell viability assay, Huh-7; assay type: cell-based; settings: Homo sapiens, Huh-7 (p53 mutant), 48 h
Method: (§1) The effects of ART derivatives on the viability of the aforementioned cells may be determined using the MTT assay. Briefly, 2,000 cells per well were plated in triplicate in 96-well plates. After a 24-h incubation, the cells may be treated with varying concentrations of ART derivatives (0, 1, 5, 10, 25, 50, and 100 μmol/L) for 48 h. The MTT assay may be performed according to the manufacture's instruction and the resultant formazan crystals may be dissolved in DMSO (100 μL). The absorbance may be then recorded at 540 nm. The effects of ART derivatives on cell viability may be assessed by comparing the percent cell viability of the treated cells with the vehicle (DMSO)-treated control cells, which may be arbitrarily assigned at 100% viability. The experiment may be repeated thrice under the same conditions.

[2] = tested on: OVCAR-3 ovarian carcinoma cells; assay: MTT cell viability assay, OVCAR-3; assay type: cell-based; settings: Homo sapiens, OVCAR-3, 48 hrs
Description: (§2) Human ovarian IOSE144 (immortalized non-tumorigenic human ovarian surface epithelial cells) and ovarian carcinoma (A2780 and OVCAR-3) cells that may be obtained from the American Type Culture Collection (ATCC, Manassas, Va.) are gifts from Dr. Jing Fang (Institute for Nutritional Sciences, Shanghai, China). All cells may be cultured according to the ATCC instructions. The compounds (ARS, ART, ARM and DHA) may be dissolved in DMSO (<0.1%, final concentration).
as §1

[3] = tested on: 7702 normal human liver cells; assay: MTT cell viability assay, normal liver cells; assay type: cell-based; settings: Homo sapiens, 7702 cells, 48 h; for IC20: read-out: IC20 (concentration that reduces growth by 20%)
Method: as §1

[4] = tested on: four hepatoma cell lines (HepG2, Hep3B, Huh-7, BEL-7404); assay: MTT assay, mean over four hepatoma cell lines; assay type: cell-based; settings: Homo sapiens, mean of HepG2, Hep3B, read-out: overall mean IC50 in the four hepatoma cell lines
Method: as §1

[5] = tested on: IOSE144 immortalized non-tumorigenic ovarian surface epithelial cells; assay: MTT cell viability assay, IOSE144; assay type: cell-based; settings: Homo sapiens, IOSE-144, IOSE144, 48 hrs
Description: as §2, §1

[6] = tested on: BEL-7404 hepatoma cells (p53 mutant); assay: MTT cell viability assay, BEL-7404; assay type: cell-based; settings: Homo sapiens, BEL-7404 (p53 mutant), 48 h
Method: as §1

[7] = tested on: HepG2 hepatoma cells (p53 wild-type); assay: MTT cell viability assay, HepG2; assay type: cell-based; settings: Homo sapiens, 48 h
Method: as §1

[8] = tested on: A2780 ovarian carcinoma cells; assay: MTT cell viability assay, A2780; assay type: cell-based; settings: Homo sapiens, A2780, 48 hrs
Description: as §2, §1

[9] = tested on: Hep3B hepatoma cells (p53 null); assay: MTT cell viability assay, Hep3B; assay type: cell-based; settings: Homo sapiens, 48 h
Method: as §1

A2780 xenograft tumors = assay type: in vivo
Method: Four to six week old female athymic nude mice (BALB/c, nu/nu) may be purchased from Shanghai Experimental Animal Center (Shanghai, China). Animal studies are approved by the Institute for Nutritional Sciences. The tumor xenograft model may be established as follows. […] Aliquots of cells (˜5×10^6 cells/0.2 ml) may be injected subcutaneously into the left inguinal area of the mice. The tumor growth and body weight of the mice may be monitored every other day. Tumor mass may be determined. Mice bearing palpable tumors (˜70 mg) may be randomly divided into treatment and control groups n=5 mice/group). CBP may be dissolved in saline, and DHA may be dissolved in cremophor EL:ethanol:saline (5:5:90, v/v/v). DHA may be administered via i.p. injection at doses of 10 and 25 mg/kg/5 days/week for 3 weeks) alone or combined with CBP (at a single dose of 120 mg/kg, once on day 0). The control group receives saline only. Mice may be killed on day 18. Tumors may be carefully excised, trimmed of extraneous fat or connective tissue, and homogenized in RIPA buffer (100 mg tumor tissue/1 ml RIPA) and prepared for immunoblotting analysis as described above.

OVCAR-3 xenograft tumors = assay: OVCAR-3 xenograft model in nude mice; assay type: in vivo; settings: CBP only, single dose 120 mg/kg on day 0
Method: Four to six week old female athymic nude mice (BALB/c, nu/nu) may be purchased from Shanghai Experimental Animal Center (Shanghai, China). Animal studies are approved by the Institute for Nutritional Sciences. The tumor xenograft model may be established as follows. Briefly, A2780 and OVCAR-3 cells may be harvested and re-suspended in serum-free RPMI 1640 medium containing 20% (v/v) Matrigel (BD Biosciences, Bedford, Mass., USA). Aliquots of cells (˜5×10^6 cells/0.2 ml) may be injected subcutaneously into the left inguinal area of the mice. The tumor growth and body weight of the mice may be monitored every other day. Tumor mass may be determined. Mice bearing palpable tumors (˜70 mg) may be randomly divided into treatment and control groups n=5 mice/group). CBP may be dissolved in saline, and DHA may be dissolved in cremophor EL:ethanol:saline (5:5:90, v/v/v). DHA may be administered via i.p. injection at doses of 10 and 25 mg/kg/5 days/week for 3 weeks) alone or combined with CBP (at a single dose of 120 mg/kg, once on day 0). The control group receives saline only. Mice may be killed on day 18. Tumors may be carefully excised, trimmed of extraneous fat or connective tissue, and homogenized in RIPA buffer (100 mg tumor tissue/1 ml RIPA) and prepared for immunoblotting analysis as described above.

OVCAR-3 cells = assay: Annexin V-FITC apoptosis assay, OVCAR-3; assay type: cell-based, human; settings: OVCAR-3, 24 hrs; DHA 1 μM, CBP 500 μM, alone or combined
Method: ART- and DHA-induced apoptosis alone or in combination with gemcitabine in HepG2 and Hep3B cells or in combination with carboplatin in ovarian cancer cells may be determined by flow cytometry using the Annexin V-FITC Apoptosis Detection kit following the manufacturer's instructions. […] The cells may then be harvested, washed in PBS, and incubated with Annexin V and propidium iodide for staining in binding buffer at room temperature for 10 min in the dark. The stained cells may be analyzed using the FACSAria instrument.

HepG2 xenograft tumors = assay: HepG2 xenograft model in nude mice; assay type: in vivo; settings: HepG2 xenograft, gemcitabine alone 80 mg/kg i.p. days 7, 11, 15
Method: Female athymic nude mice (nu/nu; 4-6 wk of age) may be obtained from Shanghai Slac Laboratory Animal Co. Ltd. All animals may be fed with commercial diet and water ad libitum. The human HCC xenograft models in mice may be as follows. Briefly, HepG2 and Hep3B cells may be re-suspended in serum-free DMEM with Matrigel basement membrane matrix at a 5:1 ratio. The cell suspension may then be injected (7×10^6 cells; total volume, 0.2 mL) into the left inguinal area of the BALB/c nude mice. The animals may be monitored for activity and physical condition everyday, and the determination of body weight and measurement of tumor mass may be done every 3 d. Tumor mass may be determined by caliper measurement in two perpendicular diameters of the implant and calculated using the formula ½a×b^2, where a stands for the long diameter and b is the short diameter. The animal use and care protocol is approved by the Institutional Review Board of the Institute for Nutritional Sciences, Chinese Academy of Sciences.
Nude mice bearing HepG2 and Hep3B xenografts, randomly divided into various treatment and control groups (five mice per group), may be treated orally with either ART or DHA suspended in 5% sesame oil+95% saline, at a dose of 50 or 100 mg/kg/d, or a combination of ART or DHA with gemcitabine or with saline (as controls). In the mice receiving combination therapy, 80 mg/kg gemcitabine, representing one fifth of the reported most tolerated dose in mice, may be administered i.p. on days 7, 11, and 15 to avoid possible side effects and to illustrate potential chemo-sensitization effects in this combination regimen.

HCC = settings: gemcitabine monotherapy, HCC patients; cited from earlier work

IC50 [1] [µM]	IC50 [2] [µM]	IC50 [4] [µM]	IC50 [6] [µM]	IC50 [7] [µM]	SMILES	IC20 [1] [µM]	IC80 [1] [µM]	IC20 [2] [µM]	IC80 [2] [µM]	IC80 [3] [µM]	IC20 [3] [µM]	IC50 [3] [µM]	IC20 [5] [µM]	IC50 [5] [µM]	IC80 [5] [µM]	IC20 [6] [µM]	IC80 [6] [µM]	IC20 [7] [µM]	IC80 [7] [µM]	IC20 [8] [µM]	other results
31.4	38.8	42.3	31.8	54.8	CO[C@H]1O[C@@H]2O[C@@]3(C)CC[C@H]4[C@H](C)CC[C@@H]([C@H]1C)[C@@]24OO3 [ARM, artemether]	1.2	> 500	2.08	> 500	> 500	7.9	492	98	> 500	> 500	2.4	> 500	2.6	> 500	2.08	IC50 [8]: 53.9 µM; IC80 [8]: > 500 µM; IC20 [9]: 2.4 µM; IC50 [9]: 51.5 µM; IC80 [9]: > 500 µM
9.22	343	21	15	20.5	C[C@H]1[C@H](OC(=O)CCC(=O)O)O[C@@H]2O[C@@]3(C)CC[C@H]4[C@H](C)CC[C@@H]1[C@@]24OO3 [ARS, artesunate]	0.6	146	3.93	> 500	> 500	7.3	> 500	> 500	> 500	> 500	1	215	1.3	338	7.68	IC50 [8]: > 500 µM; IC80 [8]: > 500 µM; IC20 [9]: 1.5 µM; IC50 [9]: 39.4 µM; IC80 [9]: > 500 µM
–	–	–	–	–	N.N.O=C([O-])C1(C(=O)[O-])CCC1.[Pt+2] [CBP, carboplatin]	–	–	–	–	–	–	–	–	–	–	–	–	–	–	–	tumor growth inhibition (A2780 xenograft tumors; A2780 xenograft, CBP only, single dose 120 mg/kg on day 0): 56%; host toxicity based on observation of body weight (A2780 xenograft tumors; mice bearing A2780 or OVCAR-3 xenografts): slight weight loss; tumor growth inhibition (OVCAR-3 xenograft tumors): 46%; rate of apoptosis (control regarded as 100%) (OVCAR-3 cells): 528%
–	–	–	–	–	Nc1ccn([C@@H]2O[C@H](CO)[C@@H](O)C2(F)F)c(=O)n1 [gemcitabine]	–	–	–	–	–	–	–	–	–	–	–	–	–	–	–	tumor growth inhibition (HepG2 xenograft tumors): 34.9%; median survival time (HCC): up to 34 weeks
